From patent publication US8048879B2, “Substituted 4,5,6,7-tetrahydro-isoxazolo[4,5-c]pyridine compounds and use thereof for producing medicaments” (Gruenenthal GmbH, priority 2005, dated 2011) come the findings set out here.

Structures can show the parent of a compound that is named as a salt. Where two headings read alike, the source gives them in different places.

Series [1] has as its target T1, 5-HT transporter (Rattus norvegicus, UniProt P31652).
T1 construct: from tissue; host or cells: rat brain (medulla and pons), synaptosomes, P2 fraction
In words: 5-HT uptake inhibition, synaptosomes from rat brain (medulla and pons). The class given is biochemical. In short, it runs like this: (§1)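 Freshly isolated rat brain synaptosomes (P2 fraction): hypothalamus for NA uptake, medulla/pons for 5-HT uptake. Uptake of [3H]-NA (7.5 min) or [3H]-5-HT (5 min) at room temperature under O2, stopped by filtration over GF/B. Retained radioactivity counted by scintillation.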

For series [2], the target named is T2, NA transporter (Rattus norvegicus, UniProt Q9WTR4).
T2 construct: from tissue; host or cells: rat brain (hypothalamus), synaptosomes, P2 fraction
Nature of the series: Noradrenalin (NA) uptake inhibition, synaptosomes from rat brain (hypothalamus). Format: biochemical. In short, it runs like this: as §1

T1 sequence (P31652 whole entry): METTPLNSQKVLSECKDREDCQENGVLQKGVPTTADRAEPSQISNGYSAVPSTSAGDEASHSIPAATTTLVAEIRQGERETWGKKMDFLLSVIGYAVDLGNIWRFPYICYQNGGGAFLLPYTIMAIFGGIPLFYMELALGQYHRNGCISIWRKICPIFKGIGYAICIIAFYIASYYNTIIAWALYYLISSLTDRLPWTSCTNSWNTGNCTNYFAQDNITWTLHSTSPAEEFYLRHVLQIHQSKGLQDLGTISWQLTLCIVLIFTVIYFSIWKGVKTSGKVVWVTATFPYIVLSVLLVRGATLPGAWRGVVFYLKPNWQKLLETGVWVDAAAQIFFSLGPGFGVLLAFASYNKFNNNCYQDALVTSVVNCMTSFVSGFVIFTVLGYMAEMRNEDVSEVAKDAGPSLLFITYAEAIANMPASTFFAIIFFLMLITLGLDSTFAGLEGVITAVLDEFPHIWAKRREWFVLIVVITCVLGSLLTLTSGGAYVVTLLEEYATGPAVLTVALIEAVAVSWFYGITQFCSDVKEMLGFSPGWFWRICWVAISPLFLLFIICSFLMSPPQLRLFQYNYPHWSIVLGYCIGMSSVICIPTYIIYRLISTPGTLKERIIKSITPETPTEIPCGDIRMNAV
T2 sequence (Q9WTR4 1-597): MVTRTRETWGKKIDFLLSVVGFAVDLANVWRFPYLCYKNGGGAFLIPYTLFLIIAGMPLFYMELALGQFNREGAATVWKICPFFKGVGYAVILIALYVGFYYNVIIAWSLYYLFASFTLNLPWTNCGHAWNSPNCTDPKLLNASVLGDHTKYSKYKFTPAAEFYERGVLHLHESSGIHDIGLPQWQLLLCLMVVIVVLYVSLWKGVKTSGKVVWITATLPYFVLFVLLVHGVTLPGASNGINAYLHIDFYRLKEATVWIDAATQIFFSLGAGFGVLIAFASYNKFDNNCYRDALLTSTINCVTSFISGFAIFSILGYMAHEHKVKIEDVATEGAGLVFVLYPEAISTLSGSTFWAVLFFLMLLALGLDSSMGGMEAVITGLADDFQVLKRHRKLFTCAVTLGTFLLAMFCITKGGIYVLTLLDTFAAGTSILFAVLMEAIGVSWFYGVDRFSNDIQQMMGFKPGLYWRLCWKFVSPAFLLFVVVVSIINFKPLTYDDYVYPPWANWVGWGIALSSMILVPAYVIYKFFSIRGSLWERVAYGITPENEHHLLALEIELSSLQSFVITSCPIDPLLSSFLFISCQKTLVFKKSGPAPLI

With `N#Cc1cccc(NC(=O)N2CCc3onc(C(=O)NCc4cccs4)c3C2)c1` [Example 12, 6,7-dihydro-4H-isoxazolo[4,5-c]pyridine-3,5-dicarboxylic acid 5-[(3-cyano-phenyl) amide]3-[(thiophen-2-ylmethyl) amide]], the “5-HT uptake (rat), 10 μM, % inhibition” value in series [1] is reported as 51%. In series [2], the “NA Uptake (rat), 10 μM, % inhibition” value came out at 46%.

Consider `Cc1cc(C)c(S(=O)(=O)N2CCc3onc(C(=O)N4CCN(CCCN(C)C)CC4)c3C2)c(C)c1` [Example 144, (4-(3-(dimethylamino)propyl)piperazin-1-yl)(5-(mesitylsulfonyl)-4,5,6,7-tetrahydroisoxazolo[4,5-c]pyridin-3-yl)methanone dihydrochloride], for which the figures for the inhibition at 10 µM in series [1] and in series [2] were 21% and 24%, respectively.

For `O=C(NCCN1CCCC1)c1noc2c1CN(C(=O)COc1cccc(Cl)c1)CC2` [Example 155, 5-(2-(3-chlorophenoxy)acetyl)-N-(2-(pyrrolidin-1-yl)ethyl)-4,5,6,7-tetrahydroisoxazolo[4,5-c]pyridine-3-carboxamide], the inhibition (usually the relative decrease from the control value, in per cent) at 10 µM was determined as 92% in series [1] and 70% in series [2].

Turning to `O=C(c1noc2c1CN(S(=O)(=O)c1cccc3ccccc13)CC2)N1CCN(c2nccs2)CC1` [Example 142, (5-(naphthalen-1-ylsulfonyl)-4,5,6,7-tetrahydroisoxazolo[4,5-c]pyridin-3-yl)(4-(thiazol-2-yl)piperazin-1-yl)methanone], the inhibition at 10 µM amounted to 30% in series [1] and 31% in series [2].

For the compound `CC(=O)c1ccc(N2CCN(C(=O)c3noc4c3CN(S(=O)(=O)c3ccc(C)cc3)CC4)CC2)cc1` [Example 86, 1-(4-{4-[5-(Toluene-4-sulfonyl)-4,5,6,7-tetrahydro-isoxazolo[4,5-c]pyridine-3-carbonyl]-piperazin-1-yl}-phenyl)-ethanone], the melting point – broadly, the temperature, or range, at which the solid turns liquid – worked out at 187.8 °C. This compound gave an inhibition at 10 µM in series [1] of 86%.

In the case of `Cc1ccc(S(=O)(=O)N2CCc3onc(C(=O)NCc4ccc(S(N)(=O)=O)cc4)c3C2)cc1` [Example 157, N-(4-sulfamoylbenzyl)-5-tosyl-4,5,6,7-tetrahydroisoxazolo[4,5-c]pyridine-3-carboxamide], the “5-HT uptake (rat), 10 μM, % inhibition” value in series [1] (10 µM) was 15%. In addition, at 10 µM the inhibition in series [2] was 45%.

As for `CC(NC(=O)N1CCc2onc(C(=O)NCc3ccccc3)c2C1)c1ccccc1` (stereo not drawn) [Example 150, N^3-benzyl-N^5-(1-phenylethyl)-6,7-dihydroisoxazolo[4,5-c]pyridine-3,5(4H)-dicarboxamide], the inhibition at 10 µM in series [1] amounted to 58%; in series [2], 27%.

On to `O=C(c1noc2c1CN(S(=O)(=O)c1ccc3ccccc3c1)CC2)N1CCN(c2nccs2)CC1` [Example 143, (5-(naphthalen-2-ylsulfonyl)-4,5,6,7-tetrahydroisoxazolo[4,5-c]pyridin-3-yl)(4-(thiazol-2-yl)piperazin-1-yl)methanone], for which the inhibition at 10 µM in series [1] amounted to 29%; in series [2] it was 44%.

For `O=C(c1noc2c1CN(S(=O)(=O)c1ccccc1)CC2)N1CCN(CC=Cc2ccccc2)CC1` [Example 97, (5-benzenesulfonyl-4,5,6,7-tetrahydro-isoxazolo[4,5-c]pyridin-3-yl)-[4-(3-phenyl-allyl)-piperazin-1-yl]-methanone], the results for the inhibition at 10 µM in series [1] and in series [2] were 67% and 75%, respectively.
